Results from patent publication US20130171098A1, “Cyclopropyl Fused Indolobenzazepine HCV NS5B Inhibitors” (priority 2006, published 2013).
Read-outs that look alike come from different tables or passages of the source.

Assays:
[1] = target: T1, HCV NS5B RdRp genotype 1b (Hepatitis C virus genotype 1b, UniProt Q9WMX2); experiment: HCV NS5B RdRp enzyme assay (standard / modified); format: biochemical
T1 construct: The protein was expressed with an 18 amino acid C-terminal truncation to enhance the solubility; made in house; host or cells: E. coli BL21(DE3), pET21a vector
T1 sequence (Q9WMX2 2420-2992): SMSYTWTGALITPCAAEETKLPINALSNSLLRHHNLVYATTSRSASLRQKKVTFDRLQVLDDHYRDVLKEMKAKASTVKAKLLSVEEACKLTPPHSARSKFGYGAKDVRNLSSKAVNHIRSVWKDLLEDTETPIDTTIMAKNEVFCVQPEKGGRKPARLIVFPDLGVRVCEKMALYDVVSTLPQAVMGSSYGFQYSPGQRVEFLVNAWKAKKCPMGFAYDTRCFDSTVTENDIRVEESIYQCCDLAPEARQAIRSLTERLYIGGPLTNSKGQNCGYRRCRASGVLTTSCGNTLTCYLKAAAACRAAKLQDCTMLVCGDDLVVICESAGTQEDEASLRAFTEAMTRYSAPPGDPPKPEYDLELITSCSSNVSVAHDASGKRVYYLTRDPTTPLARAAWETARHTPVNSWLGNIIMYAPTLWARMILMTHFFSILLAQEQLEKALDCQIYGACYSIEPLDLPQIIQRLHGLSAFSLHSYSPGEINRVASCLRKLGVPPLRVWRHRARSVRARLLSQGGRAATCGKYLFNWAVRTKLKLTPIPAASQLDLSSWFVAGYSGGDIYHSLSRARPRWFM
Method: HCV NS5B RdRp Cloning, Expression, and Purification.
The cDNA encoding the NS5B protein of HCV, genotype 1b, was cloned into the pET21a expression vector. The protein was expressed with an 18 amino acid C-terminal truncation to enhance the solubility. The E. coli competent cell line BL21(DE3) was used for expression of the protein. Cultures were grown at 37° C. for ˜4 hours until the cultures reached an optical density of 2.0 at 600 nm. The cultures were cooled to 20° C. and induced with 1 mM IPTG. Fresh ampicillin was added to a final concentration of 50 μg/ml and the cells were grown overnight at 20° C.
The lysis buffer consisted of 20 mM Tris-HCl, pH 7.4, 500 mM NaCl, 0.5% triton X-100, 1 mM DTT, 1 mM EDTA, 20% glycerol, 0.5 mg/ml lysozyme, 10 mM MgCl2, 15 ug/ml deoxyribonuclease I, and Complete TM protease inhibitor tablets (Roche). After addition of the lysis buffer, frozen cell pellets were resuspended using a tissue homogenizer. To reduce the viscosity of the sample, aliquots of the lysate were sonicated on ice using a microtip attached to a Branson sonicator. The sonicated lysate was centrifuged at 100,000×g for 1 hr at 4° C. and filtered through a 0.2 μm filter unit (Corning).
The protein was purified using two sequential chromatography steps: Heparin sepharose CL-6B and polyU sepharose 4B (Pharmacia). The chromatography buffers were identical to the lysis buffer but contained no lysozyme, deoxyribonuclease I, MgCl2 or protease inhibitor and the NaCl concentration of the buffer was adjusted according to the requirements for charging the protein onto the column. Each column was eluted with a NaCl gradient which varied in length from 5-50 column volumes depending on the column type. […] The enzyme was aliquoted and stored at −80° C.
Standard HCV NS5B RdRp Enzyme Assay.
HCV RdRp genotype 1b assays were run in a final volume of 60 μl in 96 well plates (Corning 3600). The assay buffer is composed of 20 mM Hepes, pH 7.5, 2.5 mM KCl, 2.5 mM MgCl2, 1 mM DTT, 1.6 U RNAse inhibitor (Promega N2515), 0.01 mg/ml BSA (Sigma B6917), and 2% glycerol. All compounds were serially diluted (3-fold) in DMSO and diluted further in water such that the final concentration of DMSO in the assay was 2%. HCV RdRp genotype 1b enzyme was used at a final concentration of 28 nM. A polyA template was used at 6 nM, and a biotinylated oligo-dT12 primer was used at 180 nM final concentration. Template was obtained commercially (Amersham 27-4110). Biotinylated primer was prepared by Sigma Genosys. 3H-UTP was used at 0.6 μCi (0.29 μM total UTP). Reactions were initiated by the addition of enzyme, incubated at 30° C. for 60 min, and stopped by adding 25 μl of 50 mM EDTA containing SPA beads (4 μg/μl, Amersham RPNQ 0007). Plates were read on a Packard Top Count NXT after >1 hr incubation at room temperature.
Modified HCV NS5B RdRp Enzyme Assay.
A modified enzyme assay was performed essentially as described for the standard enzyme assay except for the following: The biotinylated oligo dT12 primer was precaptured on streptavidin-coated SPA beads by mixing primer and beads in assay buffer and incubating at room temperature for one hour. Unbound primer was removed after centrifugation. The primer-bound beads were resuspended in 20 mM Hepes buffer, pH 7.5 and used in the assay at final concentrations of 20 nM primer and 0.67 μg/μl beads. Order of addition in the assay: enzyme (1.75 nM) was added to diluted compound followed by the addition of a mixture of template (0.36 nM), 3H-UTP (0.6 μCi, 0.29 μM), and primer-bound beads, to initiate the reaction; concentrations given are final. Reactions were allowed to proceed for 4 hours at 30° C.
IC50 values for compounds were determined using seven different [I].

[2] = system: HCV replicon cells; experiment: HCV replicon FRET / luciferase assay; format: cell-based, Hepatitis C virus
Method: The HCV FRET screening assay was performed in 96-well cell culture plates. The FRET peptide (Anaspec, Inc.) (Taliani et al., Anal. Biochem. 1996, 240, 60-67) contains a fluorescence donor, EDANS, near one end of the peptide and an acceptor, DABCYL, near the other end. The fluorescence of the peptide is quenched by […] resonance energy transfer (RET) between the donor and the acceptor, but as the NS3 protease cleaves the peptide the products are released from RET quenching and the fluorescence of the donor becomes apparent. The assay reagent was made as follows: 5× cell Luciferase cell culture lysis reagent from Promega (#E153A) diluted to 1× with dH2O, NaCl added to 150 mM final, the FRET peptide diluted to 20 μM final from a 2 mM stock.
To prepare plates, HCV replicon cells, with or without a Renilla luciferase reporter gene, were trypsinized and plated in a 96-well plate with titrated test compounds added in columns 3 through 12; columns 1 and 2 contained a control compound (HCV control inhibitor), and the bottom row contained cells with DMSO only. The plates were then placed in a CO2 incubator at 37° C.
Subsequent to addition of the test compounds described above (FRET Assay Preparation), at various times the plate was removed and Alamar blue solution (Trek Diagnostics, #00-100) was added to measure cellular toxicity. After reading in a Cytoflour 4000 instrument (PE Biosystems), plates were rinsed with PBS and then used for FRET assay by the addition of 30 ul of the FRET peptide assay reagent described above (FRET Assay Preparation) per well. The plate was then placed into the Cytoflour 4000 instrument which had been set to 340 excite/490 emission, automatic mode for up to 20 cycles and the plate read in a kinetic mode. Typically, the signal to noise using an endpoint analysis after the reads was at least three-fold. Alternatively, after Alamar blue reading, plates were rinsed with PBS, then used for luciferase assay using the Promega Dual-Glo Luciferase Assay System or the Promega EnduRen Live Cell Substrate assay.
Compound analysis was performed by quantification of the relative HCV replicon inhibition and the relative cytotoxicity values. To calculate cytoxicity values, the average Alamar Blue fluorescence signals from the control wells were set as 100% non-toxic. The individual signals in each of the compound test wells were then divided by the average control signal and multiplied by 100% to determine […]. To calculate the HCV replicon inhibition values, an average background value was obtained from the two wells containing the highest amount of HCV control inhibitor at the end of the assay period. These numbers were similar to those obtained from naïve Huh-7 cells. The background numbers were then subtracted from the average signal obtained from the control wells and this number was used as 100% activity. The individual signals in each of the compound test wells were then divided by the averaged control values after background subtraction and multiplied by 100% to determine percent activity. […] The two numbers generated for the compound plate, percent cytoxicity and percent activity, were used to determine compounds of interest for further analysis.

[3] = HCV NS5B RdRp genotype 1b enzyme
[4] = HCV replicon cells, FRET or luciferase activity

| SMILES | IC50 [1] [µM] | EC50 ([2]; Hepatitis C virus) [µM] | further results |
| --- | --- | --- | --- |
| COc1ccc2c(c1)[C@@H]1C[C@]1(C(=O)N1[C@@H]3CC[C@H]1CN(C(=O)N(C)C)C3)Cn1c-2c(C2CCCCC2)c2ccc(C(=O)NS(=O)(=O)N(C)C)cc21 | 0.001 to 0.5 | 0.001 to 0.5 |  |
| COc1ccc2c(c1)C1CC1(C(=O)N1C3CCC1CN(C)C3)Cn1c-2c(C2CCCCC2)c2ccc(C(=O)NS(=O)(=O)C(F)(F)F)cc21 (centres unmarked) | 0.001 to 0.5 | 0.001 to 0.5 |  |
| COc1ccc2c(c1)C1CC1(C(=O)N1C3CCC1CN(C)C3)Cn1c-2c(C2CCCCC2)c2ccc(C(=O)NS(=O)(=O)C3CCCCC3)cc21 (centres unmarked) | 0.001 to 0.5 | 0.001 to 0.5 |  |
| COc1ccc2c(c1)C1CC1(C(=O)N1CC3CCC(C1)N3C(=O)OC(C)(C)C)Cn1c-2c(C2CCCCC2)c2ccc(C(=O)NS(=O)(=O)N(C)C)cc21 (centres unmarked) | < 0.02 | 0.001 to 0.5 |  |
| COc1ccc2c(c1)C1CC1(C(=O)N1C3CCC1CN(C)C3)Cn1c-2c(C2CCCCC2)c2ccc(C(=O)NS(C)(=O)=O)cc21 (centres unmarked) [drawing 114] |  |  | IC50 [1, 3]: 0.001 to 0.5 µM; EC50 [2, 4]: 0.001 to 0.5 µM |
| CN1CC2CCC(C1)N2C(=O)C12CC1c1cc(O)ccc1-c1c(C3CCCCC3)c3ccc(C(=O)NS(=O)(=O)N(C)C)cc3n1C2 (centres unmarked) [drawing 44] | 0.001 to 0.5 | 0.001 to 0.5 |  |
| COc1ccc2c(c1)C1CC1(C(=O)N1C3CCC1CN(C)C3)Cn1c-2c(C2CCCCC2)c2ccc(C(=O)NS(=O)(=O)N3CCC3)cc21 (centres unmarked) [drawing 101] | 0.001 to 0.5 | 0.001 to 0.5 |  |
| CN1CC2CCC(C1)N2C(=O)C12CC1c1cc(OC(F)F)ccc1-c1c(C3CCCCC3)c3ccc(C(=O)NS(=O)(=O)N(C)C)cc3n1C2 (centres unmarked) [drawing 90] | 0.001 to 0.5 | 0.001 to 0.5 |  |
| CCN1CC2CCC(C1)N2C(=O)C12CC1c1cc(OC)ccc1-c1c(C3CCCCC3)c3ccc(C(=O)NS(=O)(=O)N(C)C)cc3n1C2 (centres unmarked) [drawing 36] | 0.001 to 0.5 | 0.001 to 0.5 |  |
| COc1ccc2c(c1)C1CC1(C(=O)NC1CC3CCC(C1)N3C)Cn1c-2c(C2CCCCC2)c2ccc(C(=O)NS(=O)(=O)N(C)C)cc21 (centres unmarked) [drawing 64] |  |  | IC50 [1, 3]: 0.001 to 0.5 µM; EC50 [2, 4]: 0.001 to 0.5 µM |
| COc1ccc2c(c1)C1CC1(C(=O)N1C3CCC1CN(CC1CC1)C3)Cn1c-2c(C2CCCCC2)c2ccc(C(=O)NS(=O)(=O)N(C)C)cc21 (centres unmarked) [drawing 65] |  |  | IC50 [1, 3]: 0.001 to 0.5 µM; EC50 [2, 4]: 0.001 to 0.5 µM |
| COc1ccc2c(c1)[C@@H]1CC1[C@@H](C(=O)N1C3CCC1CN(C)C3)n1c-2c(C2CCCCC2)c2ccc(C(=O)N(C)S(=O)(=O)N(C)C)cc21 (some centres unmarked) | > 0.5 | > 0.04 |  |
| COc1ccc2c(c1)[C@@H]1C[C@]1(C(=O)N1C3CCC1CN(C)C3)Cn1c-2c(C2CCCCC2)c2ccc(C(=O)NS(=O)(=O)N(C)C)cc21 |  |  | IC50 ([1]; HCV NS5B RdRp genotype 1b enzyme, read-out: IC50): 0.001 to 0.5 µM; EC50 ([2]; Hepatitis C virus, HCV replicon cells, FRET or luciferase activity, read-out: EC50): 0.001 to 0.5 µM |
